Assay [1] has as its system Puccinia recondita—PUCCRT. The assay can be described thus: Brown Rust of Wheat, in vivo whole plant, 24 Hour Protectant. The note with it: for pest or weed control at 100 ppm: Puccinia, read-out: PUCCRT in vivo 1 Day Protectant.
The test system of assay [2] is Leptosphaeria nodorum—LEPTNO. The assay can be described thus: Glume Blotch of Wheat, in vivo whole plant, 24 Hour Protectant. Particulars: for pest or weed control at 100 ppm: Leptosphaeria, read-out: LEPTNO in vivo 1 Day Protectant.
The test system of another assay is Septoria tritici—SEPTTR. The assay can be described thus: Leaf Blotch of Wheat, in vivo whole plant, 24 Hour Protectant. The note with it: Zymoseptoria tritici, 24 h, read-out: SEPTTR in vivo 1 Day Protectant.
Another assay relates to Erysiphe graminis—ERYSGT. The assay can be described thus: Powdery Mildew of Wheat, in vivo whole plant, 24 Hour Protectant. The note with it: Erysiphe, read-out: ERYSGT in vivo 1 Day Protectant.
The test system of assay [3] is Phytophthora infestans—PHYTIN. The assay can be described thus: whole plant or invertebrate. The class given is in vivo. Particulars: Phytophthora, in Solanum lycopersicum, 24 h, read-out: PHYTIN in vivo 1 Day Protectant.
The test system of assay [4] is Mycosphaerella graminicola (Septoria tritici—SEPTTR). The assay can be described thus: In vitro fungal growth inhibition, Mycosphaerella graminicola (SEPTTR). Format: cell-based. Particulars: Zymoseptoria tritici, read-out: SEPTTR in vitro Growth Inhibition.
In assay [5] the test system is Magnaporthe grisea (Pyricularia oryzae—PYRIOR). The assay can be described thus: microbe, parasite or virus in culture. Format: cell-based. Particulars: Pyricularia oryzae, read-out: PYRIOR in vitro Growth Inhibition.
The test system of assay [6] is Stagonospora nodorum (Leptosphaeria nodorum—LEPTNO). The assay can be described thus: In vitro fungal growth inhibition, Stagonospora nodorum (LEPTNO). Format: cell-based. Particulars: Leptosphaeria, read-out: LEPTNO in vitro Growth Inhibition.
The test system of the next assay is Ustilago maydis (USTIMA). The assay can be described thus: microbe, parasite or virus in culture. Format: cell-based. Particulars: Mycosarcoma maydis, read-out: USTIMA in vitro Growth Inhibition.
For assay [7], the system named is Phytophthora infestans (PHYTIN). The assay can be described thus: microbe, parasite or virus in culture. The note with it: Phytophthora infestans, read-out: PHYTIN in vitro Growth Inhibition. The class given is cell-based.
Assay [8] concerns Rhizoctonia solani (RHIZSO). The assay can be described thus: microbe, parasite or virus in culture. The class given is cell-based. The note with it: Rhizoctonia solani, read-out: RHIZSO in vitro Growth Inhibition.
[9] abbreviates: wheat plants sprayed at 100 ppm, inoculated after 24 hours, control of fungal infection vs untreated plants.
Setting [10] is: 100 ppm spray, 24 hour protectant, wheat, control of fungal infection vs untreated plants.
The mark [11] stands for this setting: 100 ppm spray, wheat, 24 hour protectant, % control of fungal infection vs untreated plants.
The mark [12] stands for this setting: 100 ppm spray, wheat, 24 hour protectant, control of fungal infection vs untreated plants.

The structures appear in SMILES notation. Read-outs that look alike come from different tables or passages of the source.

By inhibition is commonly meant the share of the control response that was lost under treatment.

For the compound `Cc1ccnc(C(=O)NC2CC(C)(C)CC(C)(C)C2)c1OC(=O)C(C)C` [Compound 571], the pest or weed control at 100 ppm in assay [1] (setting [9]) is below 25%; in assay [2] (setting [9]), 25 to 74%; in the assay on Septoria tritici—SEPTTR (setting [9]), below 25%; with Erysiphe graminis—ERYSGT (setting [9]) it was below 25%; in assay [3] it was 25 to 74%.

On to `COc1ccnc(C(=O)N[C@@H]2CC3CC2[C@@H](C(=O)OCCc2ccccc2)[C@H]3C(=O)OCC(C)C)c1O` (stereo partly drawn) [Compound 301], for which the pest or weed control at 100 ppm in assay [1] (setting [10]) was 25 to 74%; in assay [2] (setting [10]), 25 to 74%; in the assay with Erysiphe graminis—ERYSGT (setting [10]), below 25%; in [3], below 25%. Moreover, the inhibition at 25 ppm was below 80% in [4] (25 ppm in growth medium); above 80% in [5]; above 80% in assay [6] (25 ppm in growth medium); below 80% in the assay on Ustilago maydis (USTIMA); below 80% in assay [7]; above 80% in [8].

`COc1ccnc(C(=O)N[C@H]2CC[C@H]3C4CCC(CC4)[C@H]3C2=O)c1O` [Compound 292]: the pest or weed control at 100 ppm in [1] (setting [10]) is 25 to 74%; in the assay on Erysiphe graminis—ERYSGT (setting [10]), below 25%; in [3], below 25%. Moreover, the inhibition at 25 ppm in [4] (25 ppm in growth medium) was below 80%; in assay [5], below 80%; in [6] (25 ppm in growth medium), above 80%; in the assay with Ustilago maydis (USTIMA), below 80%; in assay [7], below 80%; in assay [8], below 80%. In assay [2] (setting [10]), the “LEPTNO in vivo 1 Day Protectant” value is given as “+ +”.

As for `COc1ccnc(C(=O)NCC(C)(C)Sc2ncc(C(F)(F)F)cc2Cl)c1O` [Compound 244], the pest or weed control at 100 ppm in assay [1] (setting [10]) was below 25%; in assay [2] (setting [10]), 25 to 74%; in the assay on Erysiphe graminis—ERYSGT (setting [10]), below 25%; in assay [3], below 25%. The inhibition at 25 ppm in [4] (25 ppm in growth medium) was above 80%; in assay [5], above 80%; in assay [6] (25 ppm in growth medium), above 80%; in the assay with Ustilago maydis (USTIMA), below 80%; in assay [7], below 80%; in assay [8], below 80%.

`COCCC(=O)Oc1c(OC)ccnc1C(=O)N[C@H]1COC(=O)[C@H](Cc2ccccc2)[C@@H](OC(=O)CCOC)[C@H](C)OC1=O` [Compound 705]: the “PUCCRT in vivo 1 Day Protectant” value in assay [1] (setting [11]) is recorded as “+ +”. Further, the “LEPTNO in vivo 1 Day Protectant” value in [2] (setting [11]) was “+ +”. In addition, the pest or weed control at 100 ppm with Septoria tritici—SEPTTR (setting [11]) is 25 to 74%; with Erysiphe graminis—ERYSGT (setting [11]), below 25%; in assay [3], below 25%.

As for `COc1ccnc(C(=O)N[C@H]2CC3CC2[C@H](COCc2cccc(C(F)(F)F)c2)C3)c1O` (stereo partly drawn) [Compound 294], the pest or weed control at 100 ppm (in [1] (setting [10]); with Erysiphe graminis—ERYSGT (setting [10]); in assay [3]) was below 25% in each case. In addition, the inhibition at 25 ppm in assay [4] (25 ppm in growth medium) is above 80%; in assay [5], above 80%; in assay [6] (25 ppm in growth medium) it was above 80%; with Ustilago maydis (USTIMA) it was below 80%; in assay [7], below 80%; in assay [8], above 80%. In addition, the “LEPTNO in vivo 1 Day Protectant” value in assay [2] (setting [10]) is “+ +”.

As for `COc1ccnc(C(=O)N[C@H]2CC3CC2C[C@@H]3COCc2cccc(C(F)(F)F)c2)c1O` (stereo partly drawn) [Compound 296], the pest or weed control at 100 ppm in assay [1] (setting [10]) was below 25%; in assay [2] (setting [10]), 25 to 74%; with Erysiphe graminis—ERYSGT (setting [10]), below 25%; in [3], below 25%. Further, the inhibition at 25 ppm was below 80% in assay [4] (25 ppm in growth medium); above 80% in [5]; above 80% in assay [6] (25 ppm in growth medium); below 80% with Ustilago maydis (USTIMA); below 80% in assay [7]; above 80% in assay [8].

Consider `COc1ccnc(C(=O)N[C@@H]2CC3CC2[C@@H](c2ccccc2)[C@@H]3C(=O)OC(C)C)c1O` (stereo partly drawn) [Compound 300], for which the pest or weed control at 100 ppm in assay [1] (setting [10]) was below 25%; in assay [2] (setting [10]), 25 to 74%; in the assay on Erysiphe graminis—ERYSGT (setting [10]), below 25%; in assay [3] it was below 25%. Further, the inhibition at 25 ppm is below 80% in [4] (25 ppm in growth medium); below 80% in [5]; above 80% in assay [6] (25 ppm in growth medium); below 80% in the assay with Ustilago maydis (USTIMA); below 80% in assay [7]; above 80% in assay [8].

As for `COc1ccnc(C(=O)N[C@H]2CO[C@@H](C(C)Cc3ccc(C(C)(C)C)cc3)OC2)c1OC(C)=O` (stereo partly drawn) [Compound 593], the “PUCCRT in vivo 1 Day Protectant” value in assay [1] (setting [9]) was “+ +”. For the same compound, the inhibition at 25 ppm (in assay [4] (25 ppm in the growth medium); in assay [5]; in assay [6] (25 ppm in the growth medium); in the assay with Ustilago maydis (USTIMA); in [7]; in [8]) was below 80% in each case. The pest or weed control at 100 ppm with Septoria tritici—SEPTTR (setting [9]) is 25 to 74%; with Erysiphe graminis—ERYSGT (setting [9]), below 25%; in assay [3], below 25%.

Regarding `COc1ccnc(C(=O)N[C@H]2COC(=O)[C@H](Cc3ccccc3)C[C@H](C)OC2=O)c1O` [Compound 382], the pest or weed control at 100 ppm is 25 to 74% in assay [1] (setting [12]), 25 to 74% in the assay on Septoria tritici—SEPTTR (setting [12]) and below 25% in the assay on Erysiphe graminis—ERYSGT (setting [12]). In addition, the inhibition at 25 ppm in assay [4] (25 ppm in growth medium) is above 80%; in [5], below 80%; in assay [6] (25 ppm in growth medium), below 80%; in the assay with Ustilago maydis (USTIMA) it was below 80%; in assay [7], below 80%; in assay [8] it was below 80%. The “LEPTNO in vivo 1 Day Protectant” value in assay [2] (setting [12]) is given as “+ +”.

On to `COc1ccnc(C(=O)NC2CCC[C@H]3[C@H]4CC[C@H](C4)[C@@H]23)c1O` (stereo partly drawn) [Compound 291], for which the pest or weed control at 100 ppm in [1] (setting [10]) is below 25%; in assay [2] (setting [10]), 25 to 74%; with Erysiphe graminis—ERYSGT (setting [10]), below 25%; in [3] it was below 25%. Moreover, the inhibition at 25 ppm in [4] (25 ppm in growth medium) was below 80%; in [5] it was below 80%; in assay [6] (25 ppm in growth medium) it was above 80%; in the assay with Ustilago maydis (USTIMA), below 80%; in [7], below 80%; in assay [8], above 80%.

Regarding `COc1ccnc(C(=O)NC2CCC[C@H]3CC(CCC=C(C)C)=CC[C@@H]23)c1O` (stereo partly drawn) [Compound 286], the pest or weed control at 100 ppm in [1] (setting [10]) is below 25%; in assay [2] (setting [10]), 25 to 74%; with Erysiphe graminis—ERYSGT (setting [10]) it was below 25%; in assay [3], below 25%. Besides, the inhibition at 25 ppm was below 80% in [4] (25 ppm in growth medium); below 80% in assay [5]; above 80% in assay [6] (25 ppm in growth medium); below 80% in the assay on Ustilago maydis (USTIMA); below 80% in assay [7]; above 80% in [8].

Regarding `COc1ccnc(C(=O)N[C@H]2COC(=O)[C@H](Cc3ccccc3)[C@@H](OC(=O)C(C)C)[C@H](C)OC2=O)c1OC(=O)OCc1ccccc1` [Compound 695], the “PUCCRT in vivo 1 Day Protectant” value in assay [1] (setting [11]) is listed as “+ +”. In addition, the inhibition at 25 ppm in assay [4] (25 ppm in growth medium) was below 80%; in [5], above 80%; in assay [6] (25 ppm in growth medium) it was below 80%; with Ustilago maydis (USTIMA), below 80%; in assay [7], below 80%; in assay [8], below 80%. In addition, the “LEPTNO in vivo 1 Day Protectant” value in assay [2] (setting [11]) is listed as “+ +”. Besides, the pest or weed control at 100 ppm (in the assay with Erysiphe graminis—ERYSGT (setting [11]); in assay [3]) was below 25% throughout.
